For data set [1] the following is noted: ref unpublished data; cited from earlier work. The text has this:
In a separate experiment, intestinal delivery was studied of two GLP-1 analogues where modifications were made with the aim of increasing their circulating half-life by several hours relative to the native molecule. In one variant, G001, the molecule was identical to native GLP-1, except that N-terminal amino group was conjugated with salicylic acid. In the second, lipidated, analogue, G002, the N-terminal was conjugated with trans-3-hexenoic acid, and in position 14, leucine was replaced by octyl glycine. In addition, glutamate and alanine in positions 21 and 24 respectively were reversed, an ...

Data set [2] deals with blood glucose. Kind of data set: Blood glucose response to exendin-4 in anaesthetised rats. It counts as in vivo, rat. As to conditions: exendin-4 co-formulated in Axcess with recombinant human insulin, via the intestine, n = 5.
From the text: Male Sprague-Dawley rats aged 8 weeks were checked for health status on delivery and assigned to cages (2 or 3 animals per cage) within the social groups at delivery and with animals of similar weight in the same cage. Animals were acclimated to the facility for 7 days before transfer to the study room for a further 4 days before the start of the experiment. The rats were randomly allotted to control and treatment groups. Animals were identified by cage tag and corresponding colour tail markings. At day −2 daily 24 h food intake was registered for each cage with 2-3 rats. At 14.00 h on day −1 (i.e., the day prior to the surgery) 50% of the usual food consumed in that interval was offered to the rats. […]
All data were entered into Excel spreadsheets and subsequently subjected to relevant statistical analyses (Graph Pad Prism software). […] Bioavailability=AUC peptide enteral administration/quantity of peptide administered enterally×quantity of peptide injected i.v./AUC of peptide after i.v. injection×100 Biopotency=biological activity after enteral administration/quantity of peptide administered enterally×quantity of peptide injected i.v./biological activity after i.v. injection×100

Where a SMILES comes first, the peptide text is derived from it. [ ]: non-standard residue; d: D form. The star is where a group is joined. ξ: configuration not given here. ξGly(octyl) = CCCCCCCCC(N)C(=O)O; Hexenoyl(3E) = CC/C=C/CC(=O)*

Take `CC/C=C/CC(=O)N[C@@H](Cc1c[nH]cn1)C(=O)N[C@@H](C)C(=O)N[C@@H](CCC(=O)O)C(=O)NCC(=O)N[C@H](C(=O)N[C@@H](Cc1ccccc1)C(=O)N[C@H](C(=O)N[C@@H](CO)C(=O)N[C@@H](CC(=O)O)C(=O)N[C@H](C(=O)N[C@@H](CO)C(=O)N[C@@H](CO)C(=O)N[C@@H](Cc1ccc(O)cc1)C(=O)NC(CCCCCCCC)C(=O)N[C@@H](CCC(=O)O)C(=O)NCC(=O)N[C@@H](CCC(N)=O)C(=O)N[C@@H](C)C(=O)N[C@@H](C)C(=O)N[C@@H](CCCCN)C(=O)N[C@@H](C)C(=O)N[C@@H](Cc1ccccc1)C(=O)N[C@H](C(=O)N[C@@H](CCC(=O)O)C(=O)N[C@@H](Cc1c[nH]c2ccccc12)C(=O)N[C@@H](CC(C)C)C(=O)N[C@H](C(=O)N[C@@H](CCCCN)C(=O)N[C@@H](CC(N)=O)C(N)=O)C(C)C)[C@@H](C)CC)C(C)C)[C@@H](C)O)[C@@H](C)O` (stereo partly drawn) [G002] ({Hexenoyl(3E)}-HAEGTFTSDVSSY[ξGly(octyl)]EGQAAKAFIEWLVKN-NH2): in data set [1], the half-life in rats was approximately 12 h.
On to “Sal-HAEGTFTSDVSSYLEGQAAKEFIAWLVKGR-NH2 [G001, identical to native GLP-1, except that N-terminal amino group was conjugated with salicylic acid]”, for which, in data set [1], the half-life in rats was 0.417 h.
For the compound “recombinant human insulin: recombinant human insulin co-formulated with exendin-4 in the Axcess formulation”, the “blood glucose with co-formulated insulin” value in data set [2] is recorded as “reduce blood glucose relative to exendin-4 administered alone”.

The values are drawn from publication PMC12363265, “Glucagon-like peptide-1 receptor agonists for treatment of diabetes and obesity: advantage of oral delivery” (Frontiers in Drug Delivery, 2024).
